Data: US8101159B2, “In vivo methods of identifying compounds which target suppressed cancer cells” (The Board of Regents of the University of Oklahoma, priority 2005, dated 2012)

Key:
[1] = system: J82 metastatic bladder cancer cells; experiment: In vivo flank xenograft, GFP-tagged cells co-injected with suppressive SISgel; conditions: nude mice, 35 mg/kg Monday, Wednesday and Friday from day 8
Procedure: Flank xenograft model. J82 cells stably expressing green fluorescent protein (GFP) were prepared as follows. pLEGFP-C1 retrovirus (Clontech, Mountain View, Calif.) was co-transfected with the pVSV-G vector (Clontech, Mountain View, Calif.) which contains a viral envelope gene into the packaging cell line GP2-293 (Clontech, Mountain View, Calif.). Supernatant from the packaging cells containing the infective virus was collected every 24 hours for 4 days. Fluorescent target cells were made by infecting J82s, a urothelial transitional cell carcinoma cell line (ATCC, Manassas, Va.), with 1 ml of fresh, virus containing, supernatant/well containing 100,000 target cells along with 8 μg/ml of polybrene (Sigma Aldrich, St. Louis, Mo.). Each application of viral supernatant was filtered through a 0.4 μM syringe filter before application to target cells. Supernatant was removed and fresh virus containing media replenished on target cells every 24 hours until 4 changes of media were completed. […]
(§1) In sterile 500 μl centrifuge tubes, placed on ice, 100 μl of cell suspension was mixed with either 100 μl ice-cold prepared SISgel or ice-cold Matrigel and mixed well. […] The area and intensity of the tumor was measured using Adobe Photoshop by first selecting the tumor area, then counting pixels above a threshold selected to eliminate background, non-tumor areas. The integrated intensity was calculated by multiplying the average intensity of detected pixels by the number of pixels detected.
(§2) In this experiment, the activities of three compounds identified by the in vitro screening method were compared against both ECM-suppressed (SISgel, right) and actively growing (Matrigel, left) J82 metastatic bladder cancer cells. […] When tumors were first visible fluorescently (8 days after implantation), 35 mg/kg Bordeaux Red, tetrabromofluorescein, or Wool Violet 2R were injected Monday, Wednesday and Friday and tumor size was measured using fluorescence microscopy. A representative time course of fluorescence imaging is shown from a single animal for each treatment group. […]

suppressed cancer cells = experiment: Library screen and dose-response, cells on normal matrix vs cells on plastic; format: cell-based; conditions: FIGS. 3A, 3B, 6A-6C
Procedure: Screening of compounds. The National Cancer Institute Developmental Therapeutics Program (NCI DTP) diversity set of 1990 compounds1 was obtained by material transfer agreement and was diluted to a final concentration of 166.7 μM in serum-containing media and placed onto cells for 72 hours at 37° C. and 5% CO2. A marker of cell proliferation using the substrate 5-carboxyfluorescein diacetate acetoxymethyl ester (CFDA-AM) cleaved to fluorescein by non-specific cellular esterases was used. Briefly, media containing a final concentration of 5 μM CFDA-AM (Molecular Probes, Eugene, Oreg.) was added in PBS for two h at 37° C. Plates were then read by a FLUOstar Optima plate reader (BMG LABTECH, Durham, N.C.) using 385 nm excitation, 428 nm emission filter.
(§3) Dose-response relations of lead compounds. To 100 μl media on cells was added 100 μl of a 2× (666.7 μM) stock of either doxorubicin, tetrandrine or o-cresolphthalein in completed media in a single column in a 96-well plate. 1:3 dilutions were made from this highest dose by removing 66.7 μl into the next column of cells containing 133 μl media. Cells were incubated with drug for 72 hours, then the CFDA-AM assay completed as described above.
(§4) Drug screening. The percent inhibition of cell proliferation (as determined by CFDA-AM cleavage) as compared to untreated cells was calculated for each drug in the wells of plates. The ratio of percent inhibition of the same drug of cells grown on SISgel as compared to non-confluent monolayers also was calculated. All library compounds were screened twice for consistency.
(§5) Dose-response relations. Data were graphed as percent inhibition of proliferation as compared to untreated cells and from this EC50 values calculated using sigmoidal dose-response non-linear regression analysis (GraphPad Prism 4.0 software, San Diego, Calif.). Dose-response relation data were compared to one another using two-way ANOVA with Bonferroni post-test (GraphPad Prism 4.0 software, San Diego, Calif.).
SISgel (90 μl) is added to wells of a 96-well plate and allowed to gel. Cancer cells in 50 μl of nutrient (such as, for example, J82 bladder cancer cell, RT4 cancer cells, TCCSUP cancer cells, 5637 cancer cells, MDA-MB-468 breast cancer cells, or B16-F10 skin tumor (or any metastatic murine melanoma)) are added to each well and allowed to attach and grow. After 24 hours, the test compounds are added to wells at 10 μM concentration. The cells are allowed to grow in the presence of the test compound for 24 hours, at which time the number of cells (or survival or mortality) are estimated by a fluorometric method. In one embodiment, the fluorometric method is an assay performed using an esterase substrate, 5-carboxyfluorescein diacetate acetoxymethyl ester (CFDA) (available from Molecular Probes, Eugene, Oreg., USA), however, any suitable assay for measuring cell survival or mortality known by those of ordinary skill in the art may be used. Examples of fluorometers which can be used include, but are not limited to, FLUOStar Optima plate reader (BMG Biotech), FL600 fluorescent plate reader (Bio-Tek Instruments), Victor2 plate reader (Wallac), FluoroCount BF10000 fluorescent microplate reader (Packard), CytoFluor® 4000 (Applied Biosystems), Bio-Tek Synergy, BMG FLUOstar Galaxy and OPTIMA, PerkinElmer Victor™, PerkinElmer HTS 7000, TECAN SpectraFluor Plus, Thermo LabSystems Fluoroskan Ascent, and the like.
The cell number results are compared to those observed in cells grown conventionally on plastic in nearly confluent monolayers that show approximately the same growth rate as the cells on SISgel. […] In other embodiments, the ratio used may be, for example, less than two fold or greater than two fold as long as the cell number or survival on non-suppressing cell support matrix is greater than the number of cells on the suppressing cell support matrix. Preferably, each positive result is then confirmed by a full dose-response curve. […]

B16-F10 cells = experiment: Complete dose response, cells in SISgel vs monolayers or Matrigel; format: cell-based, murine; conditions: FIGS. 9A-9B
Procedure: as §3, §5
(§6) SISgel (90 μl) is added to wells of a 96-well plate and allowed to gel. […] Examples of fluorometers which can be used include, but are not limited to, FLUOStar Optima plate reader (BMG Biotech), FL600 fluorescent plate reader (Bio-Tek Instruments), Victor2 plate reader (Wallac), FluoroCount BF10000 fluorescent microplate reader (Packard), CytoFluor® 4000 (Applied Biosystems), Bio-Tek Synergy, BMG FLUOstar Galaxy and OPTIMA, PerkinElmer Victor™, PerkinElmer HTS 7000, TECAN SpectraFluor Plus, Thermo LabSystems Fluoroskan Ascent, and the like. […]

[2] = system: J82 metastatic bladder cancer cells; experiment: In vivo flank xenograft, GFP-tagged cells co-injected with permissive Matrigel; conditions: nude mice; for activity against actively growing cells in vivo (fluorescence imaging): 35 mg/kg Monday, Wednesday and Friday from day 8
Procedure: Flank xenograft model. J82 cells stably expressing green fluorescent protein (GFP) were prepared as follows. pLEGFP-C1 retrovirus (Clontech, Mountain View, Calif.) was co-transfected with the pVSV-G vector (Clontech, Mountain View, Calif.) which contains a viral envelope gene into the packaging cell line GP2-293 (Clontech, Mountain View, Calif.). Supernatant from the packaging cells containing the infective virus was collected every 24 hours for 4 days. Fluorescent target cells were made by infecting J82s, a urothelial transitional cell carcinoma cell line (ATCC, Manassas, Va.), with 1 ml of fresh, virus containing, supernatant/well containing 100,000 target cells along with 8 μg/ml of polybrene (Sigma Aldrich, St. Louis, Mo.). Each application of viral supernatant was filtered through a 0.4 μM syringe filter before application to target cells. Supernatant was removed and fresh virus containing media replenished on target cells every 24 hours until 4 changes of media were completed. Virus containing media was replaced with Minimum Essential Media, MEM, (Life Technologies, Carlsbad, Calif.) containing 1% nonessential amino acids, 1% L-glutamine, 1% sodium pyruvate and 10% Fetal Calf Serum, and cells were allowed to grow to 90% confluence. Stable transfects were selected through sequential sorting and enrichment of fluorescent cells using flow cytometry.
as §1, with “well. The mix was immediately injected into either the right or left flank of a 5-week old nude mouse, nu/nu-nuBR, (Charles River Laboratories, Wilmington, Mass.). Caliper measurements of tumor size were taken every week for the length of the study as were fluorescent images.” for “well.”
as §2

MDA-MB-468 cells = experiment: Complete dose response, cells in SISgel vs monolayers or Matrigel; format: cell-based; conditions: FIGS. 8A-8B
Procedure: as §3, §5, §6

J82 cells = experiment: Cell proliferation dose-response (CFDA-AM), cells on SISgel vs non-confluent monolayers; format: cell-based
Procedure: Plating of cells for screening. Three-dimensional gel cultures with Matrigel were made by layering 50 μl of ice cold Matrigel into wells of a Costar 3610 white, clear bottom 96-well plates (Corning, Corning, N.Y.) allowed to gel at 37° C. Confluent cells were trypsinized with 1 ml 0.25% trypsin −1 mM EDTA, and 30,000 were added to wells containing the gelled matrices. The cells were fed with 50 μl of their respective media containing 10% fetal calf serum. To establish non-confluent monolayers, cells were plated at a cell density of 10,000/well 24 hours prior to drug treatments.
Screening of compounds. […] Plates were then read by a FLUOstar Optima plate reader (BMG LABTECH, Durham, N.C.) using 385 nm excitation, 428 nm emission filter. […]
as §4, with “All library compounds were screened twice for consistency.” left out
Dose-response relations. Data were graphed as percent inhibition of proliferation as compared to untreated cells and from this EC50 values calculated using sigmoidal dose-response non-linear regression analysis (GraphPad Prism 4.0 software, San Diego, Calif.). […]

Compound	effect on ECM-suppressed cells in vivo (fluorescence imaging) [1]	sensitivity of cells on normal matrix compared with cells grown on plastic (suppressed cancer cells)	EC50 of cells grown in SISgel compared with monolayers or Matrigel (B16-F10 cells)	rate of tumor growth in Matrigel treated animals compared with controls ([2]; 35 mg/kg)	activity against actively growing cells in vivo (fluorescence imaging) [2]	EC50 of cells grown in SISgel compared with monolayers or Matrigel (MDA-MB-468 cells)	activity against cancer cells under suppressing conditions compared with non-suppressing cell culture (dose-response, FIG. 2) (J82 cells)
O=C1OC2(c3ccc(O)cc3Oc3cc(O)ccc32)c2c(Br)c(Br)c(Br)c(Br)c21 [3,4,5,6-tetrabromofluorescein]	caused disappearance of the cells	several fold increased sensitivity	lower EC50 values	weak inhibition of tumor growth	none of the three compounds had any activity	lower EC50 values	–
O=S(=O)([O-])c1ccc2c(N=Nc3cccc4ccccc34)c(O)c(S(=O)(=O)[O-])cc2c1.[Na+].[Na+] [Bordeaux Red]	caused disappearance of the cells	several fold increased sensitivity	lower EC50 values	–	none of the three compounds had any activity	lower EC50 values	–
CC(C)=CCC(OC(=O)C=C(C)C)C1=CC(=O)c2c(O)ccc(O)c2C1=O (stereo not drawn) [NSC140377]	–	several fold increased sensitivity	–	–	–	–	–
Cc1cc(C)c(NC(=O)/C=C/c2ccccc2)c(C)c1 [NSC 191384]	–	several fold increased sensitivity	–	–	–	–	more active against cancer cells grown under the suppressing conditions
CC1=C(N2CC2)C(=O)C(CO)=C(N2CC2)C1=O [NSC 697726]	–	several fold increased sensitivity	–	–	–	–	–
Wool Violet 2R	caused disappearance of the cells	several fold increased sensitivity	–	–	none of the three compounds had any activity	–	–
